Test results: ChEMBL document CHEMBL5724796, “Tm Shift (DSF) assay results for EUbOPEN Chemogenomics Library” (2024)
Several values for one entry are separate records, joined by “and”; a condition that tells them apart may be missing. Identical values can stand only once. Residues, ends and D or L forms follow the SMILES beside them. *: point of attachment. Cbz = O=C(OCc1ccccc1)*; CH2Cl = ClC*; CH2F = FC*

What was measured:
[1] = biological target: Fibroblast growth factor receptor 2 (Homo sapiens) (UniProt P21802); settings: Compound concentration 20.0 uM
Fibroblast growth factor receptor 2 (Homo sapiens), sequence (P21802 22-821 limits assumed): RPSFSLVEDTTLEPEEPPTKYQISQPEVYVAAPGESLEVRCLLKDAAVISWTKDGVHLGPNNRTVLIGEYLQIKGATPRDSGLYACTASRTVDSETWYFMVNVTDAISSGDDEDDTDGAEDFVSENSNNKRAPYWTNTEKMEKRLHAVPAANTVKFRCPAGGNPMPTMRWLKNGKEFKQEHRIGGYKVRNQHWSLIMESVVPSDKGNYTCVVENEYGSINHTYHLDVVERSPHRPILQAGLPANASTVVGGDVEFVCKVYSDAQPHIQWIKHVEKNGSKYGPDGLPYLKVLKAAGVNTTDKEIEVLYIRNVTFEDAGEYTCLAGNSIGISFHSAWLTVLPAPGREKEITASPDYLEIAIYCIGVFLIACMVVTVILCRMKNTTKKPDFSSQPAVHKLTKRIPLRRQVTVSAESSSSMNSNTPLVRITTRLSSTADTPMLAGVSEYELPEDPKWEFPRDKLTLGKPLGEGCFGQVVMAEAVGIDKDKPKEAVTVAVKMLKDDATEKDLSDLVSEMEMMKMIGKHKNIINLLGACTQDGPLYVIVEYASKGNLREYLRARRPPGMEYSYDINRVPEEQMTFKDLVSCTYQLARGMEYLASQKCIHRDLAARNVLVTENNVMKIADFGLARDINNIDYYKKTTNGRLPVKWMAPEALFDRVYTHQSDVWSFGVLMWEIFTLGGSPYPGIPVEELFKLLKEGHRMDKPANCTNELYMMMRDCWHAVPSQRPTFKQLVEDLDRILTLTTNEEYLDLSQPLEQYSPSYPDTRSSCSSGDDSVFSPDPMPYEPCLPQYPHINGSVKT
Description: Thermal Shift Assay. Domain: start/stop: T457-E768

Peregrin (Homo sapiens) = biological target: T1, Peregrin (Homo sapiens) (UniProt P55201); settings: Compound concentration 20.0 uM
T1 sequence (whole entry): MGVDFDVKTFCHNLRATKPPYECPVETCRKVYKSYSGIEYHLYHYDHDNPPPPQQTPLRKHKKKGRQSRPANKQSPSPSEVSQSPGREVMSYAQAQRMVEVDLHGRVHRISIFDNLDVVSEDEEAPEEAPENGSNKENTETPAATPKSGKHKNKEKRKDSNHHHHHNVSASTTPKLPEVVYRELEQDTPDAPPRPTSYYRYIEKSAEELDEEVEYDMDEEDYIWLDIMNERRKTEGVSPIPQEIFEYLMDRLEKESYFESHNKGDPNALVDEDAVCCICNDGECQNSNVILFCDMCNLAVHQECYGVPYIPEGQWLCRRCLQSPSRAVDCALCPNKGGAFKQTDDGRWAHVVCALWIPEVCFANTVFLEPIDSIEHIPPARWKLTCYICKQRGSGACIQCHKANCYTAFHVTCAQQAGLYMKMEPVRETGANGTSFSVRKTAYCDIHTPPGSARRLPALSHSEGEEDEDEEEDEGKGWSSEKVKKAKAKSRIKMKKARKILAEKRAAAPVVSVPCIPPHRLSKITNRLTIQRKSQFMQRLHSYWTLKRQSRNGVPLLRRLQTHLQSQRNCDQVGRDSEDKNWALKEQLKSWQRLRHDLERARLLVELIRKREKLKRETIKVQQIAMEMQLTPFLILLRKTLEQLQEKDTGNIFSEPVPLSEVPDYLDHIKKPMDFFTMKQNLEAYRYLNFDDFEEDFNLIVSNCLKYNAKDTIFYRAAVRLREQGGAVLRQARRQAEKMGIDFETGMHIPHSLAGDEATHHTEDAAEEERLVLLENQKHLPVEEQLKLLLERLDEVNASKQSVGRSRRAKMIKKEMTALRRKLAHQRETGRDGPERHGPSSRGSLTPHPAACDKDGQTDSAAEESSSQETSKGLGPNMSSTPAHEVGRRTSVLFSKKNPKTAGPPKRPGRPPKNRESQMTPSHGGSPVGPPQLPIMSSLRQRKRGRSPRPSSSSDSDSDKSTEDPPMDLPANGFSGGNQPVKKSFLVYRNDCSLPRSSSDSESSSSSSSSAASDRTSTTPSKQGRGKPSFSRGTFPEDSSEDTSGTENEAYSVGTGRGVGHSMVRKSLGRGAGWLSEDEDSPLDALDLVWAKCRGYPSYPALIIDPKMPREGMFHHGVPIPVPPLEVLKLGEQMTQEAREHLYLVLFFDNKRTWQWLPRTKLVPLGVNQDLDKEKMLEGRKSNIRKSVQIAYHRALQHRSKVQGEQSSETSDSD

Structure (SMILES)	ΔTm [1]	ΔTm (Peregrin (Homo sapiens))
CN1CCN(c2nc(-c3ccc(C(=O)NC4(C(=O)NCC#N)CCCCC4)cc3)cs2)CC1	0.15 °C	-1.32 °C
O=C(CN1CCN(C(=O)c2ccco2)CC1)Nc1cc(C(F)(F)F)ccc1Cl	0.27 °C	-0.04 °C
C[C@H](CN[C@@H](C(=O)Nc1ccc(-c2cnn(C)c2)cn1)c1ccccc1)c1ccc(C#N)cc1	0.96 °C	-3.43 °C
O=C(C[C@@H](C(F)F)n1ccc(F)n1)N1CCC(O)(Cn2cnc3c(cnn3-c3ccc(F)cc3)c2=O)CC1	0.2 °C	0.9 °C
O=c1[nH][nH]c(=O)c2cc(OCc3ccsc3)ccc12	0.19 °C	3.18 °C
Cc1ccc(NC2=CC(=O)c3sc(C)nc3C2=O)cc1	-0.13 °C	-1.72 °C
O=C(Cc1ccccc1)c1cc(O)c(O)c([N+](=O)[O-])c1	0.57 °C	0.33 °C
CCOC(=O)NCCCC(=O)NCCc1ccccc1	0.51 °C	-0.92 °C
O=C(Nc1c(Cl)cncc1Cl)c1ccc(OC(F)F)c(OCC2CC2)c1	0.95 °C	0.52 °C
CC(=O)N[C@@H](CC(C)C)C(=O)N[C@@H](CCC(=O)O)C(=O)N[C@@H](Cc1cnc[nH]1)C(=O)N[C@@H](CC(=O)O)C(=O)CCl (Ac-LEHD-CH2Cl)	0.65 °C	-1.13 °C
COC(=O)c1ccc(CN2CCC(O)(Cn3cnc4c(-c5ccc(CN)cc5)n(C)nc4c3=O)CC2)c(Cl)c1	-0.37 °C	1.55 °C
Cn1ncc2c(-c3c(-c4ccc(F)cn4)nn4c3COC(C)(C)C4)ccnc21	1.01 °C	-1.06 °C
CN(C)Cc1ccc(-c2nc3cccc4c3n2CCNC4=O)cc1	0.73 °C	0.88 °C
COc1cc(C(=O)N2C[C@H](N)CC[C@@H]2C)cc2nc(-c3cc4cccnc4n3CC3CC3)n(C)c12	0.33 °C	0.21 °C
O=C(c1cc(Cc2n[nH]c(=O)c3ccccc23)ccc1F)N1CCN(C(=O)C2CC2)CC1	-0.16 °C	0.96 °C
CC(C)NCC(O)COC(Cn1c2ccccc2c2ccccc21)Cn1c2ccccc2c2ccccc21 (configuration not stated)	0.48 °C	-1.15 °C
COc1cc2c(NC3CCN(C)CC3)cc(-c3ccc(C)o3)nc2cc1OCCCN1CCCC1	0.85 °C	-0.96 °C
O=C1CCc2cc(OCCCCc3nnnn3C3CCCCC3)ccc2N1	-0.38 °C	-1.16 °C
C[C@@H]1OC(=O)NN=C1c1ccc(-c2ccc(F)cc2)c(C(F)(F)F)c1	-0.74 °C	0.4 °C
CCCC[C@]1(CC)CS(=O)(=O)c2cc(CNC(CC(=O)O)CC(=O)O)c(OC)cc2[C@@H](c2ccccc2)N1	0.6 °C	1.87 °C
CCN(CC)C(=O)/C(C#N)=C/c1cc(O)c(O)c([N+](=O)[O-])c1	0.06 °C	1.31 °C

Structure (SMILES)	ΔTm [1]	ΔTm (Peregrin (Homo sapiens))
COC(=O)[C@H]1[C@H]2C[C@@H]3c4[nH]c5cc(OC)ccc5c4CCN3C[C@H]2C[C@@H](OC(=O)c2cc(OC)c(OC)c(OC)c2)[C@@H]1OC	-0.07 °C	0.08 °C
CCCCNc1cc(C(=O)O)cc(S(N)(=O)=O)c1Oc1ccccc1	-0.15 °C	0.81 °C
Cc1cc(Cn2c(=O)n(Cc3cnc(C)s3)c(=O)c3cc(S(=O)(=O)NC4(C)CC4)ccc32)n(C)n1	0.47 °C	-1.12 °C
CS(=O)(=O)N1CCN(C(=O)c2cnc3ccc(Cl)cc3c2-c2ccc(C3(C#N)CC3)cc2)CC1	0.34 °C	1.84 °C
CCC[C@H]1CNCc2c1[nH]c(=O)c(C#N)c2N1CCC2(CC1)CC2	0.92 °C	-0.83 °C
Cc1sc2c(c1C)C(c1ccc(Cl)cc1)=N[C@@H](CC(=O)OC(C)(C)C)c1nnc(C)n1-2	0.6 °C	-1.61 °C
Oc1ccc(-c2c(-c3ccccc3)nn3c(C(F)(F)F)cc(C(F)(F)F)nc23)cc1	1.15 °C	-1.38 °C
Nc1ccccc1NC(=O)c1ccc(CNc2nccc(-c3cccnc3)n2)cc1	1.02 °C	-0.72 °C
CC(=O)N[C@@H](C)C(=O)N[C@@H](CCC(=O)O)C(=O)N[C@H](C(=O)N[C@@H](C=O)CC(=O)O)C(C)C	0.19 °C	-1.79 °C
CC(C)(C)c1ccc(S(=O)(=O)NCc2ccc(C(=O)Nc3cccnc3)cc2)cc1	-0.54 °C	-0.61 °C
N=C(N)SCc1ccc(CN2C(=O)C(=O)c3cc(Br)cc(Br)c32)cc1	-6.45 °C	-6.38 °C
C[C@@H]1CN(c2ncc(Cl)c(Nc3ccc4c(c3)n(CCC(C)(C)O)c(=O)n4C)n2)C[C@H](C)C1(F)F	-3.16 °C	-5.71 °C
Cc1cc(C(=O)N2CCN(C3CN(C(=O)c4ccc(-c5ccccc5)cc4)C3)CC2)no1	1.38 °C	-1.49 °C
CC(C)Cc1nn(C)c(=O)c2c(SCCCO)n(Cc3cccc4ccccc34)cc12	0.03 °C and -0.58 °C	-2.75 °C and -3.63 °C
CN(CCCN1c2ccccc2CCc2ccccc21)CC(=O)c1ccc(Cl)cc1	0.53 °C	-0.12 °C
CCCCOc1c(OC)cc(C(=O)NCC2(N(C)C)CCOCC2)cc1OC	-0.02 °C	-1.37 °C
CCCCCCCCCCCCCC(=S)NCCCC[C@H](NC(=O)OCc1ccccc1)C(=O)Nc1ccccc1	0.84 °C	3.33 °C
CC(=O)C(=Cc1cc(O)c(O)c([N+](=O)[O-])c1)C(C)=O	-0.23 °C	0.33 °C
O=C(C1CC1)N1CCN(Cn2sc3ccccc3c2=O)CC1	0.46 °C	-1.36 °C
O=C(CCl)Nc1ccc(S(=O)(=O)c2ccc(NC(=O)CCl)cc2)cc1	0.88 °C	0.78 °C
N[C@@H](CC(=O)N1CCN(C(c2ccc(F)cc2)c2ccc(F)cc2)CC1)C(=O)N1Cc2ccccc2C1	0 °C	-1.34 °C

Structure (SMILES)	ΔTm [1]	ΔTm (Peregrin (Homo sapiens))
Cn1ncnc1[C@H]1C2=c3c(cc(F)cc3=N[C@@H]1c1ccc(F)cc1)C(=O)NN2	0.09 °C	3.07 °C
COC(=O)CC(NC(=O)C(C)NC(=O)C(NC(=O)C(CC(=O)OC)NC(=O)C(NC(=O)OCc1ccccc1)C(C)C)C(C)C)C(=O)CF (configuration not stated) (Cbz-VD(OMe)VAD(OMe)-CH2F; configuration not given here)	-0.48 °C	2.28 °C
FC(F)(F)Oc1ccc(Oc2ccnc(N3CCC(NC(=S)Nc4cccnc4)CC3)c2Cl)c(Cl)c1	-3.46 °C and 0.73 °C	0.92 °C and 3.5 °C
CN(Cc1cccc(-c2ccncc2)c1)C(=O)Oc1ccc(-c2ccc(C(N)=O)cc2)cc1	0.69 °C	2.09 °C
CN1CCc2c(n(Cc3ccc(C(=O)NO)cc3)c3ccccc23)C1	-3.78 °C	-0.68 °C
Nc1ccc(-c2cccs2)cc1NC(=O)c1ccc2nc(N3CCNCC3)ccc2c1	0.98 °C	0.96 °C
CCCc1nc(C)c2c(C)nc3ccc(OC)nc3n12	-0.53 °C	-0.07 °C
O=C(Nc1ccc2[nH]nc(-c3ccncc3)c2c1)[C@@H]1CCN(CC(=O)N2CCN(c3ccc(-c4ncccn4)cc3)CC2)C1	0.95 °C	-0.34 °C
CCO/N=C1\c2ccccc2-c2nc(C#N)c(C#N)nc21	0.21 °C and 0.32 °C	2.55 °C and 0.36 °C
CS(=O)(=O)c1ccc(-c2cnc(NCc3ccco3)n3cnnc23)cc1	0.54 °C	-1.15 °C
CC(C)(C)c1ccc(CN(C(=O)CN(Cc2c(F)c(F)c(F)c(F)c2F)S(=O)(=O)c2ccc(F)cc2)c2ccc(C(=O)NO)cc2)cc1	1.58 °C	-3.76 °C
CCOc1ccc2nc(-c3cccc(OCC(=O)NC(C)C)c3)nc(Nc3ccc(-c4cn[nH]c4)cc3)c2c1	-0.59 °C	2.82 °C
O=C(N1CCCC[C@H]1Cc1ccccc1)n1cc(-c2ccc(-c3ccccc3)cc2)nn1	0.8 °C	1 °C
C[C@]12O[C@H](C[C@]1(O)CO)n1c3ccccc3c3c4c(c5c6ccccc6n2c5c31)CNC4=O	5.19 °C	-0.7 °C
CC(=O)N[C@@H](Cc1ccc(O)cc1)C(=O)N[C@H](C(=O)N[C@@H](C)C(=O)N[C@@H](CC(=O)O)C(=O)COC(=O)c1c(C)cccc1C)C(C)C	0.82 °C	-1.58 °C
CCS(=O)(=O)N1CC(CC#N)(n2cc(-c3ncnc4[nH]ccc34)cn2)C1	1.48 °C	-1.09 °C
CC(C)c1cc(C(=O)N2CC[C@@H](NC(=O)C3CC3)C2)[nH]n1	-0.51 °C	-0.47 °C
CCS(=O)(=O)N1CCC([C@@H](C)n2c(C)c(C(=O)NCc3c(OC)cc(C)[nH]c3=O)c3ccccc32)CC1	0.02 °C	-1.1 °C
Nc1ccccc1NC(=O)c1ccc(CNC(=O)OCc2cccnc2)cc1	0.41 °C	-0.57 °C
